# Literature values, collected in patent US11549142B2, “CETP inhibitors for therapeutic use” (Hoffmann-La Roche Inc., priority 2013, dated 2023).
# Key:
# CETP = target: T1, CETP (Homo sapiens, UniProt P11597); conditions: humans; de Grooth et al.; cited from earlier work
# T1 construct: host or cells: humans treated with the compound (endogenous plasma CETP)
# T1 sequence (P11597 18-493): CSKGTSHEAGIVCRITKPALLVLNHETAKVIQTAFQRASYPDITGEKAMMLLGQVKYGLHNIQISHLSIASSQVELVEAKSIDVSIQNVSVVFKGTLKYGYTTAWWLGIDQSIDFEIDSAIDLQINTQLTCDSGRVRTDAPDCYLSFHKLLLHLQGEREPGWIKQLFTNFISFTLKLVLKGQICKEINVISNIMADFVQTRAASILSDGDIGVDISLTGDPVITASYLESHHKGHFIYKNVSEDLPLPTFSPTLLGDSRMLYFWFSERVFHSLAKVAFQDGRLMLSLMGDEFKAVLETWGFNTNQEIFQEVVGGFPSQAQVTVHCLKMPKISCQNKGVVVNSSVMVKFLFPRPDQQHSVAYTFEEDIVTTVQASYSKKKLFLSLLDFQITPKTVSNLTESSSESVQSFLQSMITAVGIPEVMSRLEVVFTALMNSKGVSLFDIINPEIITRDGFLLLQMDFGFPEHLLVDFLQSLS
# [1] = rabbits, Okamoto et al., cited from earlier work
compound,measurement,setting,value
"CCC(CC)CC1(C(=O)Nc2ccccc2SC(=O)C(C)C)CCCCC1 [dalcetrapib, thioisobutyric acid S-(2-{[1-(2-ethyl-butyl)-cyclohexanecarbonyl]-amino}-phenyl) ester]",CETP activity,CETP,inhibitor of CETP activity
same,LDL cholesterol,[1],decrease LDL cholesterol
same,plasma HDL cholesterol,"[1]; Shinkai et al., Kobayashi et al.",increase plasma HDL cholesterol
